Measured values reported in US20250230193A1, “CYCLIC COMPOUND HAVING SELECTIVE KRAS INHIBITORY EFFECT ON HRAS AND NRAS” (CHUGAI SEIYAKU KABUSHIKI KAISHA, priority 2022, published 2025).

Legend:
[1] = molecular target: GDP-bound NRAS wild-type protein (Homo sapiens, UniProt P01111); experiment: Binding to NRAS by surface plasmon resonance (SPR), Single Cycle Kinetics; details: KD ratio, GDP-bound NRAS wild-type vs GDP-bound KRAS wild-type, SPR
[2] = molecular target: GDP-bound HRAS wild-type protein (Homo sapiens, UniProt P01112); experiment: Binding to HRAS by surface plasmon resonance (SPR), Single Cycle Kinetics; details: KD ratio, GDP-bound HRAS wild-type vs GDP-bound KRAS wild-type, SPR
Chain of GDP-bound HRAS wild-type protein (P01112 whole entry): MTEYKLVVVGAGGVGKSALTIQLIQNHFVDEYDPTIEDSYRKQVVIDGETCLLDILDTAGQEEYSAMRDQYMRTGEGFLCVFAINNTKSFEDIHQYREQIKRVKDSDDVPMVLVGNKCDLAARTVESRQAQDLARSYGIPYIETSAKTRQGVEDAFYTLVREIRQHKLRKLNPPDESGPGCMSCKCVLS

Chain of GDP-bound NRAS wild-type protein (P01111 whole entry): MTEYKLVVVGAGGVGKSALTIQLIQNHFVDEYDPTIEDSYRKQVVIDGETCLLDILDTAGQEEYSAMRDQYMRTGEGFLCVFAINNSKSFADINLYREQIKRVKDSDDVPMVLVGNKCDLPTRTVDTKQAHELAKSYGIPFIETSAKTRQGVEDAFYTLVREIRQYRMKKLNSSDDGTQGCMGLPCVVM

Structure (SMILES) | NRAS/KRAS (ratio of KD value with respect to NRAS to KD value with respect to KRAS) [1] | HRAS/KRAS (ratio of KD value with respect to HRAS to KD value with respect to KRAS) [2]
CCO[C@@H]1C[C@H]2C(=O)NC3(CCC3)C(=O)N(C)[C@@H](CC(C)C)C(=O)N(C)[C@H](C(=O)N(C)C)CC(=O)N(C)[C@@H](CC)C(=O)N[C@@H]([C@@H](C)CC)C(=O)N(C)CC(=O)N(C)[C@H]3C/C=C\CCN(C3=O)[C@@H](Cc3ccc(C(F)(F)F)cc3)C(=O)N(C)CC(=O)N[C@@H](CCc3cc(F)c(C(F)(F)F)c(F)c3)C(=O)N2C1 [PP1089] | AA (a compound having 20 or more is denoted as AA) | A (a compound having 10 or more and less than 20 is denoted as A)
CCO[C@@H]1C[C@H]2C(=O)NC3(CCC3)C(=O)N(C)[C@@H](C3CCCC3)C(=O)N(C)[C@H](C(=O)N3CCCC3)CC(=O)N(C)[C@@H](CC)C(=O)N[C@@H]([C@@H](C)CC)C(=O)N(C)CC(=O)N(C)[C@H]3C/C=C\CCN(C3=O)[C@@H](Cc3ccc(C(F)(F)F)cc3)C(=O)N(C)CC(=O)N[C@@H](CCc3cc(F)c(C(F)(F)F)c(F)c3)C(=O)N2C1 [PP1090] | AA (a compound having 20 or more is denoted as AA) | A (a compound having 10 or more and less than 20 is denoted as A)
CCO[C@@H]1C[C@H]2C(=O)NC3(CCC3)C(=O)N(C)[C@@H](C3CCCC3)C(=O)N(C)[C@H](C(=O)N3CCC3)CC(=O)N(C)[C@@H](CC)C(=O)N[C@@H]([C@@H](C)CC)C(=O)N(C)CC(=O)N(C)[C@H]3C/C=C\CCN(C3=O)[C@@H](Cc3ccc(C(F)(F)F)cc3)C(=O)N(C)CC(=O)N[C@@H](CCc3cc(F)c(C(F)(F)F)c(F)c3)C(=O)N2C1 [PP1091] | A (a compound having 10 or more and less than 20 is denoted as A) | B (a compound having 3 or more and less than 10 is denoted as B)
CCO[C@@H]1C[C@H]2C(=O)NC3(CCC3)C(=O)N(C)[C@@H](C3CCCC3)C(=O)N(C)[C@H](C(=O)N3CCOCC3)CC(=O)N(C)[C@@H](CC)C(=O)N[C@@H]([C@@H](C)CC)C(=O)N(C)CC(=O)N(C)[C@H]3C/C=C\CCN(C3=O)[C@@H](Cc3ccc(C(F)(F)F)cc3)C(=O)N(C)CC(=O)N[C@@H](CCc3cc(F)c(C(F)(F)F)c(F)c3)C(=O)N2C1 [PP1092] | A (a compound having 10 or more and less than 20 is denoted as A) | A (a compound having 10 or more and less than 20 is denoted as A)
CCO[C@@H]1C[C@H]2C(=O)NC3(CCC3)C(=O)N(C)[C@@H](C3CCCC3)C(=O)N(C)[C@H](C(=O)N3C4CCC3COC4)CC(=O)N(C)[C@@H](CC)C(=O)N[C@@H]([C@@H](C)CC)C(=O)N(C)CC(=O)N(C)[C@H]3C/C=C\CCN(C3=O)[C@@H](Cc3ccc(C(F)(F)F)cc3)C(=O)N(C)CC(=O)N[C@@H](CCc3cc(F)c(C(F)(F)F)c(F)c3)C(=O)N2C1 [PP1093] | AA (a compound having 20 or more is denoted as AA) | A (a compound having 10 or more and less than 20 is denoted as A)
CCO[C@@H]1C[C@H]2C(=O)NC3(CCC3)C(=O)N(C)[C@@H](C3CCCC3)C(=O)N[C@H](C(=O)N(C)C)CC(=O)N(C)[C@@H](CC)C(=O)N[C@@H]([C@@H](C)CC)C(=O)N(C)CC(=O)N(C)[C@H]3C/C=C\CCN(C3=O)[C@@H](Cc3ccc(C(F)(F)F)cc3)C(=O)N(C)CC(=O)N[C@@H](CCc3cc(F)c(C(F)(F)F)c(F)c3)C(=O)N2C1 [PP1094] | A (a compound having 10 or more and less than 20 is denoted as A) | B (a compound having 3 or more and less than 10 is denoted as B)
CCO[C@@H]1C[C@H]2C(=O)NC3(CCC3)C(=O)N(C)[C@@H](C3CCCC3)C(=O)N(C)[C@H](C)CC(=O)N(C)[C@@H](CC)C(=O)N[C@@H]([C@@H](C)CC)C(=O)N(C)CC(=O)N(C)[C@H]3C/C=C\CCN(C3=O)[C@@H](Cc3ccc(C(F)(F)F)cc3)C(=O)N(C)CC(=O)N[C@@H](CCc3cc(F)c(C(F)(F)F)c(F)c3)C(=O)N2C1 [PP1095] | B (a compound having 3 or more and less than 10 is denoted as B) | B (a compound having 3 or more and less than 10 is denoted as B)
CCO[C@@H]1C[C@H]2C(=O)NC3(CCCC3)C(=O)N(C)[C@@H](C3CCCC3)C(=O)N(C)[C@H](C)CC(=O)N(C)[C@@H](CC(C)C)C(=O)N[C@@H]([C@@H](C)CC)C(=O)N(C)CC(=O)N(C)[C@H]3C/C=C\CCN(C3=O)[C@@H](Cc3ccc(C(F)(F)F)cc3)C(=O)N(C)CC(=O)N[C@@H](CCc3cc(F)c(C(F)(F)F)c(F)c3)C(=O)N2C1 [PP1096] | B (a compound having 3 or more and less than 10 is denoted as B) | B (a compound having 3 or more and less than 10 is denoted as B)
CCO[C@@H]1C[C@H]2C(=O)NC3(CCC3)C(=O)N(C)[C@@H](C3CCCC3)C(=O)N3CCC[C@@H]3CC(=O)N(C)[C@@H](CC)C(=O)N[C@@H]([C@@H](C)CC)C(=O)N(C)CC(=O)N(C)[C@H]3C/C=C\CCN(C3=O)[C@@H](Cc3ccc(C(F)(F)F)cc3)C(=O)N(C)CC(=O)N[C@@H](CCc3cc(F)c(C(F)(F)F)c(F)c3)C(=O)N2C1 [PP1097] | B (a compound having 3 or more and less than 10 is denoted as B) | B (a compound having 3 or more and less than 10 is denoted as B)
CCO[C@@H]1C[C@H]2C(=O)NC3(CCC3)C(=O)N(C)[C@@H](C3CCCC3)C(=O)N[C@H](C)CC(=O)N(C)[C@@H](CC)C(=O)N[C@@H]([C@@H](C)CC)C(=O)N(C)CC(=O)N(C)[C@H]3C/C=C\CCN(C3=O)[C@@H](Cc3ccc(C(F)(F)F)cc3)C(=O)N(C)CC(=O)N[C@@H](CCc3cc(F)c(C(F)(F)F)c(F)c3)C(=O)N2C1 [PP1098] | B (a compound having 3 or more and less than 10 is denoted as B) | B (a compound having 3 or more and less than 10 is denoted as B)
CCO[C@@H]1C[C@H]2C(=O)NC3(CCC3)C(=O)N(C)[C@@H](C3CCCC3)C(=O)N(C)[C@H](C)CC(=O)N(C)[C@@H](CC(C)C)C(=O)N[C@@H]([C@@H](C)CC)C(=O)N(C)CC(=O)N(C)[C@H]3C/C=C\CCN(C3=O)[C@@H](Cc3ccc(C(F)(F)F)cc3)C(=O)N(C)CC(=O)N[C@@H](CCc3cc(F)c(C(F)(F)F)c(F)c3)C(=O)N2C1 [PP1100] | B (a compound having 3 or more and less than 10 is denoted as B) | B (a compound having 3 or more and less than 10 is denoted as B)
CC[C@H](C)[C@@H]1NC(=O)[C@H](CC)N(C)C(=O)C[C@@H](C)N(C)C(=O)[C@H](C2CCCC2)N(C)C(=O)C2(CCCC2)NC(=O)[C@@H]2CCCN2C(=O)[C@H](CCc2cc(F)c(C(F)(F)F)c(F)c2)NC(=O)CN(C)C(=O)[C@H](Cc2ccc(C(F)(F)F)cc2)N2CC/C=C\C[C@@H](C2=O)N(C)C(=O)CN(C)C1=O [PP1101] | B (a compound having 3 or more and less than 10 is denoted as B) | B (a compound having 3 or more and less than 10 is denoted as B)
CC[C@H](C)[C@@H]1NC(=O)[C@H](CC(C)C)N(C)C(=O)C[C@@H](C)N(C)C(=O)[C@H](C2CCCC2)N(C)C(=O)C2(CCCC2)NC(=O)[C@@H]2CCCN2C(=O)[C@H](CCc2cc(F)c(C(F)(F)F)c(F)c2)NC(=O)CN(C)C(=O)[C@H](Cc2ccc(C(F)(F)F)cc2)N2CC/C=C\C[C@@H](C2=O)N(C)C(=O)CN(C)C1=O [PP1102] | B (a compound having 3 or more and less than 10 is denoted as B) | A (a compound having 10 or more and less than 20 is denoted as A)
CC[C@H](C)[C@@H]1NC(=O)[C@H](C)N(C)C(=O)C[C@@H](C(=O)N(C)C)N(C)C(=O)[C@H](C2CCCC2)N(C)C(=O)C2(CCC2)NC(=O)[C@@H]2CC(F)(F)CN2C(=O)[C@H](CCc2cc(F)c(C(F)(F)F)c(F)c2)NC(=O)CN(C)C(=O)[C@H](Cc2ccc(C(F)(F)F)cc2)N2CC/C=C\C[C@@H](C2=O)N(C)C(=O)CN(C)C1=O [PP1103] | A (a compound having 10 or more and less than 20 is denoted as A) | B (a compound having 3 or more and less than 10 is denoted as B)
CCO[C@@H]1C[C@H]2C(=O)NC3(CCCC3)C(=O)N(C)[C@@H](C3CCCC3)C(=O)N(C)[C@H](C(=O)N(C)C)CC(=O)N(C)[C@@H](C)C(=O)N[C@@H]([C@@H](C)CC)C(=O)N(C)CC(=O)N(C)[C@H]3C/C=C\CCN(C3=O)[C@@H](Cc3ccc(C(F)(F)F)cc3)C(=O)N(C)CC(=O)N[C@@H](CCc3cc(F)c(C(F)(F)F)c(F)c3)C(=O)N2C1 [PP1104] | A (a compound having 10 or more and less than 20 is denoted as A) | A (a compound having 10 or more and less than 20 is denoted as A)
